Results on 2 compounds are retold here after US20240316012A1, “METHODS FOR TREATING LYMPHOMA” (Northwestern University, priority 2023, published 2024).

SMILES strings stand for the structures.

One assay deals with H3K27 acetylation. The assay is described as follows: Flow cytometry for H3K27ac after in vitro culture with inhibitors. In kind it is cell-based, mouse. The source says: Data are normalized to viable cell number and z-scores per metabolite. […] P=two-sided Student's t-test. The data are presented as the mean±SEM and individual data points for each animal. Cross indicates death of the animal. […] P=two-sided Student's t-test. Shown are the mean±SD and individual data points. […] Data are presented as mean±SD and individual data points. […] P=paired two-sided Student's t-test. Data are presented as the mean±SD. […] Data was normalized as in (a). P=two-sided Student's t-test. The data are presented as the mean±SEM. […] Experiment as in (h) (n=3 mice genotype). Data was normalized as in (a). P=two-sided Student's t-test. Data are presented as the mean±SD. FIGS. 3-D, Representative data from two independent experiments with n=3 biological replicates per group. FIG. 3E, Representative data from two independent experiments with two biological replicates per group. FIG. 3F, Representative data from two independent experiments. FIG. 3G, Representative data from two independent experiments with three biological replicates per group. FIG. 3H, Representative data from one experiment with four biological replicates per group. FIG. 3I, Representative data from one experiment with three biological replicates per group FIGS. 4A-4H show ACLY is a critical effector molecule downstream of PD-1. […] ITK-SYK^+ cells were FACS-sorted from ITK-[…]2 mice on d5 after TAM and 12 h anti-PD-L1 or isotype control antibody treatment (i.p., 200 μg). P=paired two-sided Student's t-test. Data are presented as the mean±SD. […] Spleen-derived single-cell suspensions were FACS-sorted from ITK-[…]2 mice on d5 after TAM and cultured in vitro overnight with anti-PD-L1 or isotype control antibodies and the PI3K inhibitors (“iPI3K”) Wortmannin (20 nM), LY294002 (20 μM), or DMSO. […] Spleen-derived lymphocytes, FACS-sorted from ITK-[…]2 and ITK-[…]2; Pdcd1^-/- mice on d5 after TAM were incubated for three days in vitro. P=two-sided Student's t-test. Data are presented as the mean±SD. […] Protein lysates were generated after 48 h in vitro culture. RNP, ribonucleoprotein. […] P=two-sided Logrank-test. […] ITK-SYK^+ cells were FACS-sorted from ITK-[…]2 (“Pdcd1^+/+”) and ITK-[…]2; Pdcd1^-/- (“Pdcd1^-/-”) mice on d5 after TAM, fixed, and processed for anti-H3K27ac ChIP-seq analysis. ChIP-seq, chromatin immunoprecipitation sequencing; TSS, transcription start site. FIG. 4B, Representative data from three independent experiments with three biological replicates per group. FIG. 4C, Representative data from two independent experiments with two biological replicates. FIGS. 4D and 4E, Representative data from 3 independent experiments. FIGS. 4F and 4G, Data from one experiment with n=5 mice per group. […] (8752, CST), and assessed by flow cytometry. […]
A general note: In flow cytometry, cells or beads pass a laser one at a time.

Another assay concerns ITK-SYK^+PD-1− cells. The assay is described as follows: Lactate production of ITK-SYK+PD-1− cells incubated with small molecule inhibitors. Type of assay: cell-based, mouse. The note with it: ITK-SYK+PD-1− cells in vitro; FIGS. 10A-C. As to the method:
Cell culture. Unless otherwise indicated, murine cells were cultured in DMEM containing 20% FCS. The following compounds were used for the in vitro experiments: glycolysis inhibitor 2-deoxy-D-glucose (D8375, Sigma), mTOR inhibitor Torin-1 (S2827, Selleckchem), HIF1α inhibitor PX-478 2HCl (S7612, Selleckchem), ATP citrate lyase inhibitor BMS-303141 (4609, Tocris), fatty acid synthase inhibitor FT113 (S6666, Selleckchem), and BET-p300/CBP dual inhibitor NE02734 (S9648, Selleckchem). Inhibitors were dissolved in DMSO or water, and the cell culture medium was supplemented with the indicated concentrations of the compound or DMSO/water (as control).
To test the dependency of fully transformed lymphomas with Pdcd1 deletion on the released mTOR-HIF1α-glycolysis cascade, Applicants incubated ITK-SYK^+PD-1− cells with small molecule inhibitors of mTOR, HIF1α, or glycolysis^22,23.

On to `O=CC[C@@H](O)[C@H](O)[C@H](O)CO` [2-DG, 2-deoxy-D-glucose], for which the “H3K27 acetylation in Pdcd1 deficient lymphoma cells” value in the assay on H3K27 acetylation (2-DG 1 mM, 4 h in vitro vs DMSO, p=0.0003) is “reduction in H3K27 acetylation”. In addition, in the assay on ITK-SYK^+PD-1− cells, the production of lactate result is recorded as “reduced the production of lactate”.

Consider `COc1ccc(-c2ccccc2)cc1NS(=O)(=O)c1cc(Cl)cc(Cl)c1O` [BMS-303141], for which the “histone acetylation (H3K27ac) in ITK-SYK+ cells” value in the assay on H3K27 acetylation (BMS-303141 15 μM vs DMSO vehicle control, 3 hours, 4 h) is recorded as “reduced histone acetylation”. Moreover, the “dependency of H3K27ac on ACLY function in cells with pharmacologically inactivated PD-1 pathway” value in the assay with H3K27 acetylation (anti-PD-L1 vs isotype control pretreated mice, BMS-303141 15 μM, p=0.0131) is on record as “significantly higher”.
